{"source": "patent US9969752B2", "about": "“Inhibitors of HIF prolyl hydroxylase” (MERCK SHARP & DOHME CORP., priority 2014, dated 2018)", "data": [{"molecular_target": "T1, Human HIF-PHD2 (Homo sapiens, UniProt Q9GZT9)", "T1 construct": "FLAG-tagged full length PHD2 expressed in and purified from baculovirus-infected Sf9 cells; FLAG; made in house; host or cells: baculovirus-infected Sf9 cells", "T1 sequence (Q9GZT9 whole entry)": "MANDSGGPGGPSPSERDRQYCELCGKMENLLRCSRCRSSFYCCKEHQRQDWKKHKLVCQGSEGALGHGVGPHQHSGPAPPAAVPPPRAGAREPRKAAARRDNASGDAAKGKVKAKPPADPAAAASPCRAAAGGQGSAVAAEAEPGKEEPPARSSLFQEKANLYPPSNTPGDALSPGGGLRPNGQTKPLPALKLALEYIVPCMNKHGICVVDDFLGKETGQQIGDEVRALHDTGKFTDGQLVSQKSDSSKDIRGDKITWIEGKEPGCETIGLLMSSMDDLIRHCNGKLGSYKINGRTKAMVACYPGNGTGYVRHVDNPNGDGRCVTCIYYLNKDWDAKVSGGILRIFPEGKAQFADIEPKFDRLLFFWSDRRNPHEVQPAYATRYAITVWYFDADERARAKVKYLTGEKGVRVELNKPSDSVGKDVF", "assay": "Inhibition of the hydroxylation of a HIF peptide by PHD2 (time resolved fluorescence, 384-well)", "assay_type": "biochemical", "details": "FLAG-tagged full length PHD2; 0.2 μM 2-oxoglutarate, 0.5 μM HIF-1α peptide; 45 minutes at room temperature; read-out: Human HIF-PHD2 IC50", "units": {"IC50": "nM"}, "values": [{"smiles": "O=C(O)CNC(=O)c1c(O)c2cc(F)cc3c2n(c1=O)CC(c1ccc(C(F)(F)F)cc1)O3", "note": "(stereo not drawn) [Example 66, 2-(9-Fluoro-7-hydroxy-5-oxo-2-(4-(trifluoromethyl)phenyl)-3,5-dihydro-2H-[1,4]oxazino[2,3,4-ij]quinoline-6-carboxamido)acetic acid]", "IC50": 5}, {"smiles": "O=C(O)CNC(=O)c1c(O)c2ccc(F)c3c2n(c1=O)CC(c1ccc(C(F)(F)F)cc1)O3", "note": "(stereo not drawn) [Example 67, 2-(10-Fluoro-7-hydroxy-5-oxo-2-(4-(trifluoromethyl)phenyl)-3,5-dihydro-2H-[1,4]oxazino[2,3,4-ij]quinoline-6-carboxamido)acetic acid]", "IC50": 4.3}, {"smiles": "CS(=O)(=O)c1ccc(C2Cn3c(=O)c(C(=O)NCC(=O)O)c(O)c4ccc(C(F)(F)F)c(c43)O2)cc1", "note": "(stereo not drawn) [Example 76, 2-(7-Hydroxy-2-(4-(methylsulfonyl)phenyl)-5-oxo-10-(trifluoromethyl)-3,5-dihydro-2H-[1,4]oxazino[2,3,4-ij]quinoline-6-carboxamido)acetic acid]", "IC50": 1.4}, {"smiles": "COc1ccc2c3c1c(O)c(C(=O)NCC(=O)O)c(=O)n3CC(c1ccc(C(F)(F)F)cc1)O2", "note": "(stereo not drawn) [Example 79, 2-(7-hydroxy-8-methoxy-5-oxo-2-(4-(trifluoromethyl)phenyl)-3,5-dihydro-2H-[1,4]oxazino[2,3,4-ij]quinoline-6-carboxamido)acetic acid]", "IC50": 4}, {"smiles": "O=C(O)CNC(=O)c1c(O)c2c(O)ccc3c2n(c1=O)CC(c1ccc(C(F)(F)F)cc1)O3", "note": "(stereo not drawn) [Example 80, 2-(7,8-dihydroxy-5-oxo-2-(4-(trifluoromethyl)phenyl)-3,5-dihydro-2H-[1,4]oxazino[2,3,4-ij]quinoline-6-carboxamido)acetic acid]", "IC50": 12}, {"smiles": "COc1cc2c3c(c1)c(O)c(C(=O)NCC(=O)O)c(=O)n3CC(c1ccc(C(F)(F)F)cc1)O2", "note": "(stereo not drawn) [Example 81, 2-(7-Hydroxy-9-methoxy-5-oxo-2-(4-(trifluoromethyl)phenyl)-3,5-dihydro-2H-[1,4]oxazino[2,3,4-ij]quinoline-6-carboxamido)acetic acid]", "IC50": 2.9}, {"smiles": "O=C(O)CNC(=O)c1c(O)c2cc(O)cc3c2n(c1=O)CC(c1ccc(C(F)(F)F)cc1)O3", "note": "(stereo not drawn) [Example 82, 2-(7,9-Dihydroxy-5-oxo-2-(4-(trifluoromethyl)phenyl)-3,5-dihydro-2H-[1,4]oxazino[2,3,4-ij]quinoline-6-carboxamido)acetic acid]", "IC50": 2.7}, {"smiles": "O=C(O)CNC(=O)c1c(O)c2cccc3c2n(c1=O)CC(c1ccc(C(F)(F)F)nc1)C3", "note": "(stereo not drawn) [Example 83, 2-(1-Hydroxy-3-oxo-6-(6-(trifluoromethyl)pyridin-3-yl)-3,5,6,7-tetrahydropyrido[3,2,1-ij]quinoline-2-carboxamido)acetic acid]", "IC50": 5}, {"smiles": "N#Cc1cc2c3c(c1)c(O)c(C(=O)NCC(=O)O)c(=O)n3CC(c1ccc(C(F)(F)F)nc1)C2", "note": "(stereo not drawn) [Example 84, 2-(9-cyano-1-hydroxy-3-oxo-6-(6-(trifluoromethyl)pyridin-3-yl)-3,5,6,7-tetrahydropyrido[3,2,1-ij]quinoline-2-carboxamido)acetic acid]", "IC50": 0.9}, {"smiles": "CS(=O)(=O)c1cc2c3c(c1)c(O)c(C(=O)NCC(=O)O)c(=O)n3CC(c1ccc(C(F)(F)F)nc1)C2", "note": "(stereo not drawn) [Example 85, 2-(1-hydroxy-9-(methylsulfonyl)-3-oxo-6-(6-(trifluoromethyl)pyridin-3-yl)-3,5,6,7-tetrahydropyrido[3,2,1-ij]quinoline-2-carboxamido)acetic acid]", "IC50": 0.9}, {"smiles": "N#Cc1cc2c3c(c1)c(O)c(C(=O)NCC(=O)O)c(=O)n3CC(c1ccc(C(F)(F)F)cc1)[S+]2[O-]", "note": "(stereo not drawn) [Example 91, 2-(9-Cyano-7-hydroxy-1-oxido-5-oxo-2-(4-(trifluoromethyl)phenyl)-3,5-dihydro-2H-[1,4]thiazino[2,3,4-ij]quinoline-6-carboxamido)acetic acid]", "IC50": 0.839}, {"smiles": "N#Cc1cc2c3c(c1)c(O)c(C(=O)NCC(=O)O)c(=O)n3C(c1ccc(C(F)(F)F)cc1)CN2", "note": "(stereo not drawn) [Example 92, 2-(9-Cyano-7-hydroxy-5-oxo-3-(4-(trifluoromethyl)phenyl)-1,2,3,5-tetrahydropyrido[1,2,3-de]quinoxaline-6-carboxamido)acetic acid]", "IC50": 3.1}, {"smiles": "N#Cc1ccc2c3c1c(O)c(C(=O)NCC(=O)O)c(=O)n3CC(c1ccc(C(F)(F)F)cc1)N2", "note": "(stereo not drawn) [Example 94, 2-(8-Cyano-7-hydroxy-5-oxo-2-(4-(trifluoromethyl)phenyl)-1,2,3,5-tetrahydropyrido[1,2,3-de]quinoxaline-6-carboxamido)acetic acid]", "IC50": 0.8}, {"smiles": "CN1CC(c2ccc(C(F)(F)F)cc2)n2c(=O)c(C(=O)NCC(=O)O)c(O)c3cc(C#N)cc1c32", "note": "(stereo not drawn) [Example 95, 2-(9-Cyano-7-hydroxy-1-methyl-5-oxo-3-(4-(trifluoromethyl)phenyl)-1,2,3,5-tetrahydropyrido[1,2,3-de]quinoxaline-6-carboxamido)acetic acid]", "IC50": 5.5}, {"smiles": "CN1c2cc(C#N)cc3c(O)c(C(=O)NCC(=O)O)c(=O)n(c23)CC1c1ccc(C(F)(F)F)cc1", "note": "(stereo not drawn) [Example 96, 2-(9-Cyano-7-hydroxy-1-methyl-5-oxo-2-(4-(trifluoromethyl)phenyl)-1,2,3,5-tetrahydropyrido[1,2,3-de]quinoxaline-6-carboxamido)acetic acid]", "IC50": 3}, {"smiles": "N#Cc1ccc2c3c1c(O)c(C(=O)NCC(=O)O)c(=O)n3CC(c1ccc(C(F)(F)F)cc1)S2", "note": "(stereo not drawn) [Example 97, 2-(8-Cyano-7-hydroxy-5-oxo-2-(4-(trifluoromethyl)phenyl)-3,5-dihydro-2H-[1,4]thiazino[2,3,4-ij]quinoline-6-carboxamido)acetic acid]", "IC50": 1.5}, {"smiles": "O=C(O)CNC(=O)c1c(O)c2c(F)ccc3c2n(c1=O)C(c1ccc(C(F)(F)F)cc1)CS3", "note": "(stereo not drawn) [Example 98, 2-(8-Fluoro-7-hydroxy-5-oxo-3-(4-(trifluoromethyl)phenyl)-3,5-dihydro-2H-[1,4]thiazino[2,3,4-ij]quinoline-6-carboxamido)acetic acid]", "IC50": 13.7}, {"smiles": "N#Cc1ccc2c3c1c(O)c(C(=O)NCC(=O)O)c(=O)n3C(c1ccc(C(F)(F)F)cc1)CS2", "note": "(stereo not drawn) [Example 99, 2-(8-Cyano-7-hydroxy-5-oxo-3-(4-(trifluoromethyl)phenyl)-3,5-dihydro-2H-[1,4]thiazino[2,3,4-ij]quinoline-6-carboxamido)acetic acid]", "IC50": 5.1}, {"smiles": "O=C(O)CNC(=O)c1c(O)c2cccc3c2n(c1=O)C(c1ccc(C(F)(F)F)cc1)CS3", "note": "(stereo not drawn) [Example 100, 2-(7-Hydroxy-5-oxo-3-(4-(trifluoromethyl)phenyl)-3,5-dihydro-2H-[1,4]thiazino[2,3,4-ij]quinoline-6-carboxamido)acetic acid]", "IC50": 32}, {"smiles": "O=C(O)CNC(=O)c1c(O)c2cccc3c2n(c1=O)C(c1ccc(C(F)(F)F)cc1)CS3(=O)=O", "note": "(stereo not drawn) [Example 101, 2-(7-hydroxy-1,1-dioxido-5-oxo-3-(4-(trifluoromethyl)phenyl)-3,5-dihydro-2H-[1,4]thiazino[2,3,4-ij]quinoline-6-carboxamido)acetic acid]", "IC50": 8.6}, {"smiles": "N#Cc1cc2c3c(c1)c(O)c(C(=O)NCC(=O)O)c(=O)n3C(c1ccc(C(F)(F)F)cc1)CS2", "note": "(stereo not drawn) [Example 102, 2-(9-Cyano-7-hydroxy-5-oxo-3-(4-(trifluoromethyl)phenyl)-3,5-dihydro-2H-[1,4]thiazino[2,3,4-ij]quinoline-6-carboxamido)acetic acid]", "IC50": 5.8}, {"smiles": "O=C(O)CNC(=O)c1c(O)c2cccc3c2n(c1=O)CC(c1ccc(C(F)(F)F)nc1)S3", "note": "(stereo not drawn) [Example 103, 2-(7-Hydroxy-5-oxo-2-(6-(trifluoromethyl)pyridin-3-yl)-3,5-dihydro-2H-[1,4]thiazino[2,3,4-ij]quinoline-6-carboxamido)acetic acid]", "IC50": 3.4}, {"smiles": "O=C(O)CNC(=O)c1c(O)c2cccc3c2n(c1=O)CC(c1ccc(C(F)(F)F)nc1)S3(=O)=O", "note": "(stereo not drawn) [Example 104, 2-(7-Hydroxy-1,1-dioxido-5-oxo-2-(6-(trifluoromethyl)pyridin-3-yl)-3,5-dihydro-2H-[1,4]thiazino[2,3,4-ij]quinoline-6-carboxamido)acetic acid]", "IC50": 6.3}, {"smiles": "O=C(O)CNC(=O)c1c(O)c2cccc3c2n(c1=O)C(c1cncs1)CS3", "note": "(stereo not drawn) [Example 105, 2-(7-Hydroxy-5-oxo-3-(thiazol-5-yl)-3,5-dihydro-2H-[1,4]thiazino[2,3,4-ij]quinoline-6-carboxamido)acetic acid]", "IC50": 5.1}, {"smiles": "O=C(O)CNC(=O)c1c(O)c2cccc3c2n(c1=O)C(c1ccc(C(F)(F)F)cc1)CN3", "note": "(stereo not drawn) [Example 106, 2-(7-Hydroxy-5-oxo-3-(4-(trifluoromethyl)phenyl)-1,2,3,5-tetrahydropyrido[1,2,3-de]quinoxaline-6-carboxamido)acetic acid]", "IC50": 27}, {"smiles": "CN1CC(c2ccc(C(F)(F)F)cc2)n2c(=O)c(C(=O)NCC(=O)O)c(O)c3cccc1c32", "note": "(stereo not drawn) [Example 107, 2-(7-Hydroxy-1-methyl-5-oxo-3-(4-(trifluoromethyl)phenyl)-1,2,3,5-tetrahydropyrido[1,2,3-de]quinoxaline-6-carboxamido)acetic acid]", "IC50": 68}, {"smiles": "O=C(O)CNC(=O)c1c(O)c2cccc3c2n(c1=O)CC(c1ccc(C(F)(F)F)cc1)N3", "note": "(stereo not drawn) [Example 108, 2-(7-Hydroxy-5-oxo-2-(4-(trifluoromethyl)phenyl)-1,2,3,5-tetrahydropyrido[1,2,3-de]quinoxaline-6-carboxamido)acetic acid]", "IC50": 6.5}, {"smiles": "N#Cc1ccc2c(O)c(C(=O)NCC(=O)O)c(=O)n3c2c1NC(c1cncs1)C3", "note": "(stereo not drawn) [Example 109, 2-(10-Cyano-7-hydroxy-5-oxo-2-(thiazol-5-yl)-1,2,3,5-tetrahydropyrido[1,2,3-de]quinoxaline-6-carboxamido)acetic acid]", "IC50": 4.2}, {"smiles": "O=C(O)CNC(=O)c1c(O)c2cccc3c2n(c1=O)CC(c1cncs1)N3", "note": "(stereo not drawn) [Example 110, 2-(7-Hydroxy-5-oxo-2-(thiazol-5-yl)-1,2,3,5-tetrahydropyrido[1,2,3-de]quinoxaline-6-carboxamido)acetic acid]", "IC50": 12}, {"smiles": "O=C(O)CNC(=O)c1c(O)c2cccc3c2n(c1=O)C(c1cncs1)CN3", "note": "(stereo not drawn) [Example 111, 2-(7-Hydroxy-5-oxo-3-(thiazol-5-yl)-1,2,3,5-tetrahydropyrido[1,2,3-de]quinoxaline-6-carboxamido)acetic acid]", "IC50": 15}]}]}
